Patent US20210338846A1, “COMPETITIVE PROSTATE-SPECIFIC MEMBRANE ANTIGEN (PSMA) BINDING AGENTS FOR REDUCTION OF NON-TARGET ORGAN UPTAKE OF RADIOLABELED PSMA INHIBITORS FOR PSMA POSITIVE TUMOR IMAGING AND RADIOPHARMACEUTICAL THERAPY” (The Johns Hopkins University, priority 2018, published 2021)
“And” between values parts separate entries of the source, which are not always exact repeats. Equal values may be shown once. Read-outs that look alike come from different tables or passages of the source.

Tests used:
[1] = test system: PSMA+ PC-3 PiP and PSMA− PC-3 flu tumors; format: in vivo
[2] = test system: PSMA+ PC-3 PiP and PSMA− PC-3 flu tumors
[3] = 2 Hour (head; title: One-Hour), No CI
[4] = 2 Hour (head; title: One-Hour), co-injection 0.5 nmole VK-02-90
[5] = 2 Hour (head; title: One-Hour), co-injection 1.0 nmole VK-02-90
[6] = 2 Hour (head; title: One-Hour), co-injection 5.0 nmole VK-02-90
[7] = 4 Hour, co-injection 0.5 nmole VK-02-90
[8] = 4 Hour, co-injection 1.0 nmole VK-02-90
[9] = 4 Hour, co-injection 5.0 nmole VK-02-90
[10] = 1 h, co-injection 0.5 nmole YC-I-27
[11] = 1 h, co-injection 1.0 nmole YC-I-27
[12] = 1 h, co-injection 5.0 nmole YC-I-27
[13] = 4 h, co-injection 0.5 nmole YC-I-27
[14] = 4 h, co-injection 1.0 nmole YC-I-27
[15] = 4 h, co-injection 5.0 nmole YC-I-27
[16] = 24 h, co-injection 0.5 nmole YC-I-27

O=C([O-])CN1CCN(CC(=O)[O-])CCN(CC(=O)NCCCCC(=O)N(CCCC[C@H](NC(=O)N[C@@H](CCC(=O)O)C(=O)O)C(=O)O)Cc2ccc([125I])cc2)CCN(CC(=O)[O-])CC1.[Lu+3] [[^125I]VK-02-90-Lu]
Biodistribution: Blood [1, 3]: 1.1 ± 0.1 % injected dose/gram
Biodistribution: Flu tumor [1, 3]: 1.0 ± 0.2 % injected dose/gram
Biodistribution: Lacrimal gland [1, 3]: 2.1 ± 0.9 % injected dose/gram
Biodistribution: PiP tumor [1, 3]: 26 ± 3 % injected dose/gram
Biodistribution: Salivary gland [1, 3]: 2.3 ± 0.5 % injected dose/gram
Biodistribution: kidneys [1, 3]: 129 ± 15 % injected dose/gram
Biodistribution: spleen [1, 3]: 4.3 ± 0.9 % injected dose/gram
Biodistribution: stomach [1, 3]: 1.7 ± 0.3 % injected dose/gram
Biodistribution: Blood [1, 4]: 0.4 ± 0.1 % injected dose/gram
Biodistribution: Flu tumor [1, 4]: 0.6 ± 0.3 % injected dose/gram
Biodistribution: Lacrimal gland [1, 4]: 0.4 ± 0.1 % injected dose/gram
Biodistribution: PiP tumor [1, 4]: 37 ± 7 % injected dose/gram
Biodistribution: Salivary gland [1, 4]: 0.2 ± 0.03 % injected dose/gram
Biodistribution: kidneys [1, 4]: 10 ± 2.5 % injected dose/gram
Biodistribution: spleen [1, 4]: 1.1 ± 0.4 % injected dose/gram
Biodistribution: stomach [1, 4]: 0.2 ± 0.1 % injected dose/gram
Biodistribution: Blood [1, 5]: 0.4 ± 0.1 % injected dose/gram
Biodistribution: Flu tumor [1, 5]: 0.5 ± 0.1 % injected dose/gram
Biodistribution: Lacrimal gland [1, 5]: 0.4 ± 0.1 % injected dose/gram
Biodistribution: PiP tumor [1, 5]: 35 ± 9 % injected dose/gram
Biodistribution: Salivary gland [1, 5]: 0.2 ± 0.06 % injected dose/gram
Biodistribution: kidneys [1, 5]: 6.5 ± 0.9 % injected dose/gram
Biodistribution: spleen [1, 5]: 1.1 ± 0.4 % injected dose/gram
Biodistribution: stomach [1, 5]: 0.2 ± 0.04 % injected dose/gram
Biodistribution: Blood [1, 6]: 0.5 ± 0.1 % injected dose/gram
Biodistribution: Flu tumor [1, 6]: 0.9 ± 0.3 % injected dose/gram
Biodistribution: Lacrimal gland [1, 6]: 0.4 ± 0.03 % injected dose/gram
Biodistribution: PiP tumor [1, 6]: 24 ± 4 % injected dose/gram
Biodistribution: Salivary gland [1, 6]: 0.3 ± 0.1 % injected dose/gram
Biodistribution: kidneys [1, 6]: 4.2 ± 0.5 % injected dose/gram
Biodistribution: spleen [1, 6]: 0.7 ± 0.2 % injected dose/gram
Biodistribution: stomach [1, 6]: 0.2 ± 0.06 % injected dose/gram
Biodistribution: Blood ([1]; 4 Hour, No CI): 0.3 ± 0.2 % injected dose/gram
Biodistribution: Flu tumor ([1]; 4 Hour, No CI): 0.2 ± 0.1 % injected dose/gram
Biodistribution: Lacrimal gland ([1]; 4 Hour, No CI): 0.4 ± 0.2 % injected dose/gram
Biodistribution: PiP tumor ([1]; 4 Hour, No CI): 27 ± 8 % injected dose/gram
Biodistribution: Salivary gland ([1]; 4 Hour, No CI): 1.8 ± 0.2 % injected dose/gram
Biodistribution: kidneys ([1]; 4 Hour, No CI): 10 ± 2.5 % injected dose/gram
Biodistribution: spleen ([1]; 4 Hour, No CI): 0.6 ± 0.2 % injected dose/gram
Biodistribution: stomach ([1]; 4 Hour, No CI): 0.8 ± 0.5 % injected dose/gram
Biodistribution: Blood [1, 7]: 0.02 ± 0.01 % injected dose/gram
Biodistribution: Flu tumor [1, 7]: 0.1 ± 0.02 % injected dose/gram
Biodistribution: Lacrimal gland [1, 7]: 0.1 ± 0.03 % injected dose/gram
Biodistribution: PiP tumor [1, 7]: 25 ± 2 % injected dose/gram
Biodistribution: Salivary gland [1, 7]: 0.08 ± 0.04 % injected dose/gram
Biodistribution: kidneys [1, 7]: 2.1 ± 0.7 % injected dose/gram
Biodistribution: spleen [1, 7]: 0.2 ± 0.1 % injected dose/gram
Biodistribution: stomach [1, 7]: 0.06 ± 0.01 % injected dose/gram
Biodistribution: Blood [1, 8]: 0.2 ± 0.01 % injected dose/gram
Biodistribution: Flu tumor [1, 8]: 0.1 ± 0.03 % injected dose/gram
Biodistribution: Lacrimal gland [1, 8]: 0.1 ± 0.05 % injected dose/gram
Biodistribution: PiP tumor [1, 8]: 27 ± 4 % injected dose/gram
Biodistribution: Salivary gland [1, 8]: 0.1 ± 0.02 % injected dose/gram
Biodistribution: kidneys [1, 8]: 1.4 ± 0.4 % injected dose/gram
Biodistribution: spleen [1, 8]: 0.2 ± 0.1 % injected dose/gram
Biodistribution: stomach [1, 8]: 0.1 ± 0.03 % injected dose/gram
Biodistribution: Blood [1, 9]: 0 % injected dose/gram
Biodistribution: Flu tumor [1, 9]: 0.1 ± 0.01 % injected dose/gram
Biodistribution: Lacrimal gland [1, 9]: 0.1 ± 0.1 % injected dose/gram
Biodistribution: PiP tumor [1, 9]: 19 ± 2 % injected dose/gram
Biodistribution: Salivary gland [1, 9]: 0.05 ± 0.02 % injected dose/gram
Biodistribution: kidneys [1, 9]: 0.9 ± 0.3 % injected dose/gram
Biodistribution: spleen [1, 9]: 0.15 ± 0.08 % injected dose/gram
Biodistribution: stomach [1, 9]: 0.1 ± 0.04 % injected dose/gram
Biodistribution: Blood ([2]; 1 h, No CI): 1.1 ± 0.1 % injected dose/gram
Biodistribution: Flu tumor ([2]; 1 h, No CI): 1.0 ± 0.2 % injected dose/gram
Biodistribution: Lacrimal gland ([2]; 1 h, No CI): 2.1 ± 0.9 % injected dose/gram
Biodistribution: PiP tumor ([2]; 1 h, No CI): 26 ± 3 % injected dose/gram
Biodistribution: Salivary gland ([2]; 1 h, No CI): 2.3 ± 0.5 % injected dose/gram
Biodistribution: kidneys ([2]; 1 h, No CI): 129 ± 15 % injected dose/gram
Biodistribution: spleen ([2]; 1 h, No CI): 4.3 ± 0.9 % injected dose/gram
Biodistribution: stomach ([2]; 1 h, No CI): 1.7 ± 0.3 % injected dose/gram
Biodistribution: Blood [2, 10]: 1.1 ± 0.1 % injected dose/gram
Biodistribution: Flu tumor [2, 10]: 1.0 ± 0.3 % injected dose/gram
Biodistribution: Lacrimal gland [2, 10]: 0.5 ± 0.1 % injected dose/gram
Biodistribution: PiP tumor [2, 10]: 42 ± 4 % injected dose/gram and 42 ± 4.2 % injected dose/gram
Biodistribution: Salivary gland [2, 10]: 3.2 ± 0.7 % injected dose/gram
Biodistribution: kidneys [2, 10]: 4.2 ± 1.3 % injected dose/gram
Biodistribution: spleen [2, 10]: 0.8 ± 0.2 % injected dose/gram
Biodistribution: stomach [2, 10]: 1.8 ± 0.2 % injected dose/gram
Biodistribution: Blood [2, 11]: 1.0 ± 0.1 % injected dose/gram
Biodistribution: Flu tumor [2, 11]: 0.8 ± 0.2 % injected dose/gram
Biodistribution: Lacrimal gland [2, 11]: 0.6 ± 0.05 % injected dose/gram
Biodistribution: PiP tumor [2, 11]: 29 ± 2 % injected dose/gram
Biodistribution: Salivary gland [2, 11]: 2.9 ± 0.4 % injected dose/gram
Biodistribution: kidneys [2, 11]: 2.4 ± 0.8 % injected dose/gram
Biodistribution: spleen [2, 11]: 0.6 ± 0.1 % injected dose/gram
Biodistribution: stomach [2, 11]: 1.8 ± 0.3 % injected dose/gram
Biodistribution: Blood [2, 12]: 1.1 ± 0.2 % injected dose/gram
Biodistribution: Flu tumor [2, 12]: 0.8 ± 0.2 % injected dose/gram
Biodistribution: Lacrimal gland [2, 12]: 1.1 ± 0.6 % injected dose/gram
Biodistribution: PiP tumor [2, 12]: 20 ± 3 % injected dose/gram
Biodistribution: Salivary gland [2, 12]: 5.1 ± 1.7 % injected dose/gram
Biodistribution: kidneys [2, 12]: 2.3 ± 0.7 % injected dose/gram
Biodistribution: spleen [2, 12]: 0.7 ± 0.1 % injected dose/gram
Biodistribution: stomach [2, 12]: 2.2 ± 0.7 % injected dose/gram
Biodistribution: Blood ([2]; 4 h, No CI): 0.3 ± 0.2 % injected dose/gram
Biodistribution: Flu tumor ([2]; 4 h, No CI): 0.2 ± 0.1 % injected dose/gram and 0.25 ± 0.1 % injected dose/gram
Biodistribution: Lacrimal gland ([2]; 4 h, No CI): 0.4 ± 0.2 % injected dose/gram
Biodistribution: PiP tumor ([2]; 4 h, No CI): 27 ± 7 % injected dose/gram and 27 ± 8 % injected dose/gram
Biodistribution: Salivary gland ([2]; 4 h, No CI): 1.8 ± 0.2 % injected dose/gram
Biodistribution: kidneys ([2]; 4 h, No CI): 9.5 ± 2.5 % injected dose/gram and 10 ± 2.5 % injected dose/gram
Biodistribution: spleen ([2]; 4 h, No CI): 0.6 ± 0.2 % injected dose/gram
Biodistribution: stomach ([2]; 4 h, No CI): 0.8 ± 0.5 % injected dose/gram
Biodistribution: Blood [2, 13]: 0.4 ± 0.06 % injected dose/gram
Biodistribution: Flu tumor [2, 13]: 0.3 ± 0.1 % injected dose/gram
Biodistribution: Lacrimal gland [2, 13]: 0.2 ± 0.02 % injected dose/gram and 0.4 ± 0.02 % injected dose/gram
Biodistribution: PiP tumor [2, 13]: 24 ± 3 % injected dose/gram
Biodistribution: Salivary gland [2, 13]: 3.3 ± 0.8 % injected dose/gram
Biodistribution: kidneys [2, 13]: 0.9 ± 0.1 % injected dose/gram
Biodistribution: spleen [2, 13]: 0.25 ± 0.07 % injected dose/gram
Biodistribution: stomach [2, 13]: 1.3 ± 0.2 % injected dose/gram
Biodistribution: Blood [2, 14]: 0.4 ± 0.05 % injected dose/gram
Biodistribution: Flu tumor [2, 14]: 0.3 ± 0.1 % injected dose/gram
Biodistribution: Lacrimal gland [2, 14]: 0.2 ± 0.03 % injected dose/gram
Biodistribution: PiP tumor [2, 14]: 24 ± 1 % injected dose/gram
Biodistribution: Salivary gland [2, 14]: 3.2 ± 0.7 % injected dose/gram
Biodistribution: kidneys [2, 14]: 0.6 ± 0.03 % injected dose/gram
Biodistribution: spleen [2, 14]: 0.2 ± 0.04 % injected dose/gram
Biodistribution: stomach [2, 14]: 1.2 ± 0.2 % injected dose/gram
Biodistribution: Blood [2, 15]: 0.4 ± 0.1 % injected dose/gram
Biodistribution: Flu tumor [2, 15]: 0.3 ± 0.1 % injected dose/gram
Biodistribution: Lacrimal gland [2, 15]: 0.5 ± 0.5 % injected dose/gram
Biodistribution: PiP tumor [2, 15]: 14 ± 5 % injected dose/gram
Biodistribution: Salivary gland [2, 15]: 5.0 ± 1.4 % injected dose/gram
Biodistribution: kidneys [2, 15]: 0.7 ± 0.1 % injected dose/gram
Biodistribution: spleen [2, 15]: 0.3 ± 0.06 % injected dose/gram
Biodistribution: stomach [2, 15]: 1.6 ± 0.4 % injected dose/gram
Biodistribution: Blood ([2]; 24 h, No CI): 0.01 ± 0.01 % injected dose/gram
Biodistribution: Flu tumor ([2]; 24 h, No CI): 0.05 ± 0.01 % injected dose/gram
Biodistribution: Lacrimal gland ([2]; 24 h, No CI): 0.05 ± 0.04 % injected dose/gram
Biodistribution: PiP tumor ([2]; 24 h, No CI): 18 ± 6 % injected dose/gram
Biodistribution: Salivary gland ([2]; 24 h, No CI): 0.02 ± 0.08 % injected dose/gram
Biodistribution: kidneys ([2]; 24 h, No CI): 1.3 ± 0.7 % injected dose/gram
Biodistribution: spleen ([2]; 24 h, No CI): 0.1 ± 0.05 % injected dose/gram
Biodistribution: stomach ([2]; 24 h, No CI): 0.01 ± 0.04 % injected dose/gram
Biodistribution: Blood [2, 16]: 0.1 ± 0.01 % injected dose/gram
Biodistribution: Flu tumor [2, 16]: 0.04 ± 0.01 % injected dose/gram
Biodistribution: Lacrimal gland [2, 16]: 0.03 ± 0.02 % injected dose/gram
Biodistribution: PiP tumor [2, 16]: 16 ± 4 % injected dose/gram
Biodistribution: Salivary gland [2, 16]: 0.02 ± 0.01 % injected dose/gram
Biodistribution: kidneys [2, 16]: 0.5 ± 0.2 % injected dose/gram
Biodistribution: spleen [2, 16]: 0.04 ± 0.01 % injected dose/gram
Biodistribution: stomach [2, 16]: 0.04 ± 0.04 % injected dose/gram
